Reference: the kinase profiling compilation of Christmann-Franck et al. (2016)
One block for each compound: values may come before it.

Legend:
Test in all cases: KINOMEscan competition binding
Settings in all cases: compound 10.0 µM
PRKCQ (human) = PRKCQ (human) (UniProt Q04759)
BTK (human) = BTK (human) (UniProt Q06187)
CAMK2G (human) = CAMK2G (human) (UniProt Q13555)
CDK14 (human) = CDK14 (human) (UniProt O94921)
CSNK1G2 (human) = CSNK1G2 (human) (UniProt P78368)
EPHB4 (human) = EPHB4 (human) (UniProt P54760)
NEK1 (human) = NEK1 (human) (UniProt Q96PY6)
RPS6KA6 KD1 (human) = RPS6KA6 KD1 (human) (UniProt Q9UK32)
Sequence of RPS6KA6 KD1 (human) (Q9UK32 whole entry, looked up): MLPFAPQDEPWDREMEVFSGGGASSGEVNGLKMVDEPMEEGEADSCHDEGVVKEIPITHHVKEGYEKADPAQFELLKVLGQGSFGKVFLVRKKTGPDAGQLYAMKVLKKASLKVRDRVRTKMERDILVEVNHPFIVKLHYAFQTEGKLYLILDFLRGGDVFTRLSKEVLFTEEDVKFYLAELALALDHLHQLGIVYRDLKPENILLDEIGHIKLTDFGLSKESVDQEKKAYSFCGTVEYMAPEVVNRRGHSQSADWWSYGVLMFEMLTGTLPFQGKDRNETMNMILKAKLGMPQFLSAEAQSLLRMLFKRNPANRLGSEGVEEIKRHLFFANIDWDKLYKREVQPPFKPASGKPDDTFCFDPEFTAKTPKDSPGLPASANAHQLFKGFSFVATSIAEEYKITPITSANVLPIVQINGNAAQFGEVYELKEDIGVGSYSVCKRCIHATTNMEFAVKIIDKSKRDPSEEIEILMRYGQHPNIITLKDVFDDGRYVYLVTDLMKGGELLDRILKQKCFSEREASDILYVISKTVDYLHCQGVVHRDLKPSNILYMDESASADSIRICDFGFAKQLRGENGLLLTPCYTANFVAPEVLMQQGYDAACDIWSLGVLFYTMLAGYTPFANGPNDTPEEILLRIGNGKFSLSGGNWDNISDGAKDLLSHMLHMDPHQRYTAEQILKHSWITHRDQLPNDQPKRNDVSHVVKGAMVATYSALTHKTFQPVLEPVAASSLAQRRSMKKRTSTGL

ERBB4 (human) = ERBB4 (human) (UniProt Q15303)
[1] = system: EGFR (human), P00533 [P753S; 747-752 del]
NEK5 (human) = NEK5 (human) (UniProt Q6P3R8)
STK4 (human) = STK4 (human) (UniProt Q13043)
[2] = target: TYK2 JH1 catalytic (human) (UniProt P29597)
NTRK2 (human) = NTRK2 (human) (UniProt Q16620)
DCLK2 (human) = DCLK2 (human) (UniProt Q8N568)
MAPKAPK2 (human) = MAPKAPK2 (human) (UniProt P49137)
EPHB2 (human) = EPHB2 (human) (UniProt P29323)
PLK3 (human) = PLK3 (human) (UniProt Q9H4B4)
Sequence of PLK3 (human) (Q9H4B4 whole entry, looked up): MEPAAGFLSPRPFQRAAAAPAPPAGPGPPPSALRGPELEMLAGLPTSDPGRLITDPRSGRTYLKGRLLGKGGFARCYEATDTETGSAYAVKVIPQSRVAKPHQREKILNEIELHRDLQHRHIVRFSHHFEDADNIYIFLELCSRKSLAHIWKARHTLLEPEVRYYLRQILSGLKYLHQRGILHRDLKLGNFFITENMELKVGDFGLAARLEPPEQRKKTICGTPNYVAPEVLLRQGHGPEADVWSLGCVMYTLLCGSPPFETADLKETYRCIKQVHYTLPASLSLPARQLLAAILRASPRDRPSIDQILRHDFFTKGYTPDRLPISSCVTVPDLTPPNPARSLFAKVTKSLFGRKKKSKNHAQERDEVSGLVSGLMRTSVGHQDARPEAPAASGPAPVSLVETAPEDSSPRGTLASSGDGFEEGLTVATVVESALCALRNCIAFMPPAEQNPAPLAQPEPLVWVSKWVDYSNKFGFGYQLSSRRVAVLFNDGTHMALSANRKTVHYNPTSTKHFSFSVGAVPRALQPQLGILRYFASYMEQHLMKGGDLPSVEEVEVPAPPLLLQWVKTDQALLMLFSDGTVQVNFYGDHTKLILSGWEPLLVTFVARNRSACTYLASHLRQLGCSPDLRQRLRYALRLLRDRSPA

EPHA2 (human) = EPHA2 (human) (UniProt P29317)
FGR (human) = FGR (human) (UniProt P09769)
MAP3K4 (human) = MAP3K4 (human) (UniProt Q9Y6R4)
CDC2L2 (human) = CDC2L2 (human) (UniProt Q9UQ88)
AURKA (human) = AURKA (human) (UniProt O14965)
PRKCD (human) = PRKCD (human) (UniProt Q05655)
Sequence of PRKCD (human) (Q05655 whole entry, looked up): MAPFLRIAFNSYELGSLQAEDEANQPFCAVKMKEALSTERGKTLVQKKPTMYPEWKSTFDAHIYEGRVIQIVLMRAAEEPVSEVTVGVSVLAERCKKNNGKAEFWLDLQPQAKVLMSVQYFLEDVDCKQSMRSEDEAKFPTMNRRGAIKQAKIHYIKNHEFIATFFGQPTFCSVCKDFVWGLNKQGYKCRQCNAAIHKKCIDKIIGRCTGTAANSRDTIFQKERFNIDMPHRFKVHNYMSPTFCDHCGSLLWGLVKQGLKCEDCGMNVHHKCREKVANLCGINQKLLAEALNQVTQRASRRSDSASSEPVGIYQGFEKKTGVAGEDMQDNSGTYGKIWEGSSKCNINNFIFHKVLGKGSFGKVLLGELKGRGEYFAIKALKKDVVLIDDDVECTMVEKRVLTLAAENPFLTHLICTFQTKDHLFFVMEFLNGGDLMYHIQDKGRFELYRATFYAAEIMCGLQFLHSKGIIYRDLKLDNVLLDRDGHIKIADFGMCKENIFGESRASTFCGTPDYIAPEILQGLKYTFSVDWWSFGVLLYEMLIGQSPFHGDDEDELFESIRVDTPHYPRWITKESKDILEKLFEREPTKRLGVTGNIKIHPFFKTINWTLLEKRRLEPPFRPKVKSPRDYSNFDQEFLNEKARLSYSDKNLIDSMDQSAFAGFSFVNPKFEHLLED

TYRO3 (human) = TYRO3 (human) (UniProt Q06418)
Sequence of TYRO3 (human) (Q06418 whole entry, looked up): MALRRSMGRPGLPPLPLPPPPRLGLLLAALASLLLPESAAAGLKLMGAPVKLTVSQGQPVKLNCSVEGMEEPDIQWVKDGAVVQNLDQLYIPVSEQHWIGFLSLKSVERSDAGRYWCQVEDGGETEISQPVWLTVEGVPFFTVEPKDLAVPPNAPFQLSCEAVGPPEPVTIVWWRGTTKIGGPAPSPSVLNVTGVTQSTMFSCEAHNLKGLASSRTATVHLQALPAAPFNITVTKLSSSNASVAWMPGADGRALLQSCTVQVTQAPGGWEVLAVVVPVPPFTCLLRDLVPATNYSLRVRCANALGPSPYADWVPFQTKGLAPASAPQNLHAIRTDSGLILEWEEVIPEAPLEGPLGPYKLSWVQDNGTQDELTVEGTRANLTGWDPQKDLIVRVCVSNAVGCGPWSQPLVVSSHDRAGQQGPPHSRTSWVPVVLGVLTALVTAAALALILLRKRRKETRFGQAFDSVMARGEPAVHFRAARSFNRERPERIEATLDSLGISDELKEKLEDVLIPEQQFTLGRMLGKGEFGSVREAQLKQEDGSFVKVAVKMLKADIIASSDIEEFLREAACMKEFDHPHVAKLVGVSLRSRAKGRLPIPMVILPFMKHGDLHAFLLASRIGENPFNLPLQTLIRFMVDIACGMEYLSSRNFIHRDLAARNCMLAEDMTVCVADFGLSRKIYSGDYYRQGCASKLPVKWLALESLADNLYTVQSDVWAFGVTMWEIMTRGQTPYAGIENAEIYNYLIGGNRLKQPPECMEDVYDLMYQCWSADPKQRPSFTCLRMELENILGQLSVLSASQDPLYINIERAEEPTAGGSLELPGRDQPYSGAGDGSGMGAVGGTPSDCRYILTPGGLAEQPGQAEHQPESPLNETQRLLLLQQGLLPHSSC

CDK8 (human) = CDK8 (human) (UniProt P49336)
PRKAA1 (human) = PRKAA1 (human) (UniProt Q13131)
RPS6KA2 KD1 (human) = RPS6KA2 KD1 (human) (UniProt Q15349)
MARK4 (human) = MARK4 (human) (UniProt Q96L34)
AKT2 (human) = AKT2 (human) (UniProt P31751)
STK32C (human) = STK32C (human) (UniProt Q86UX6)
AKT3 (human) = AKT3 (human) (UniProt Q9Y243)
MAPK9 (human) = MAPK9 (human) (UniProt P45984)
BRSK1 (human) = BRSK1 (human) (UniProt Q8TDC3)
CDC42BPB (human) = CDC42BPB (human) (UniProt Q9Y5S2)
MAP4K3 (human) = MAP4K3 (human) (UniProt Q8IVH8)
FLT1 (human) = FLT1 (human) (UniProt P17948)
TEK (human) = TEK (human) (UniProt Q02763)
PKN1 (human) = PKN1 (human) (UniProt Q16512)
PDGFRA (human) = PDGFRA (human) (UniProt P16234)
Sequence of PDGFRA (human) (P16234 whole entry, looked up): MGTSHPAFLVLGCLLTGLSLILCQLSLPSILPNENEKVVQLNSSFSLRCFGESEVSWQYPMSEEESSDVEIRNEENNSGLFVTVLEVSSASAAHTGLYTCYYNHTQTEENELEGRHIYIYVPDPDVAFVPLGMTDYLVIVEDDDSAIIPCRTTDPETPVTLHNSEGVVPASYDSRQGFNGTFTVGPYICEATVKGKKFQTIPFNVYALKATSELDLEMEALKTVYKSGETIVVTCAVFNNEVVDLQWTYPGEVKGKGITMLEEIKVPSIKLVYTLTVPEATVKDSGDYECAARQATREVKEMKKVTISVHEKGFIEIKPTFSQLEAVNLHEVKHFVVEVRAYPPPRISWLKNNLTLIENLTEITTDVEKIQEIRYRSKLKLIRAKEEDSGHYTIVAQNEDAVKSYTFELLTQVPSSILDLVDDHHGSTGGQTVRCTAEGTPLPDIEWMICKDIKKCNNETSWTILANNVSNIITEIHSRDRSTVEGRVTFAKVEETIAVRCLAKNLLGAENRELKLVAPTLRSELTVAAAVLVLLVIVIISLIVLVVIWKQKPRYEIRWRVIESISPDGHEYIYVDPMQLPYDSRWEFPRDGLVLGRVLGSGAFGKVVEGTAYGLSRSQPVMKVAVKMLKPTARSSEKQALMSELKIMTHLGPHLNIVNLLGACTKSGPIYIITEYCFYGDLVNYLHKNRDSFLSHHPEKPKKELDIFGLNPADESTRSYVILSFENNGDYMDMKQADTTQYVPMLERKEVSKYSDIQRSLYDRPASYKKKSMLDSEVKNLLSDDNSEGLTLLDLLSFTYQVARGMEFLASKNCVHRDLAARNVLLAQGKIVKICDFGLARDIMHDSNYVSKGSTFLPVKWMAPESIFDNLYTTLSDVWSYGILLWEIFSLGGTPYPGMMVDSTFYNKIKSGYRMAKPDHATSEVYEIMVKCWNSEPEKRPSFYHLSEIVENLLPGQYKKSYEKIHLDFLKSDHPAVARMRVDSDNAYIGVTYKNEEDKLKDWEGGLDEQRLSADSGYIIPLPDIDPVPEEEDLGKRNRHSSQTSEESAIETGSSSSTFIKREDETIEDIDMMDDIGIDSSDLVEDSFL

CDK11B (human) = CDK11B (human) (UniProt P21127)
CAMK1 (human) = CAMK1 (human) (UniProt Q14012)
Sequence of CAMK1 (human) (Q14012 whole entry, looked up): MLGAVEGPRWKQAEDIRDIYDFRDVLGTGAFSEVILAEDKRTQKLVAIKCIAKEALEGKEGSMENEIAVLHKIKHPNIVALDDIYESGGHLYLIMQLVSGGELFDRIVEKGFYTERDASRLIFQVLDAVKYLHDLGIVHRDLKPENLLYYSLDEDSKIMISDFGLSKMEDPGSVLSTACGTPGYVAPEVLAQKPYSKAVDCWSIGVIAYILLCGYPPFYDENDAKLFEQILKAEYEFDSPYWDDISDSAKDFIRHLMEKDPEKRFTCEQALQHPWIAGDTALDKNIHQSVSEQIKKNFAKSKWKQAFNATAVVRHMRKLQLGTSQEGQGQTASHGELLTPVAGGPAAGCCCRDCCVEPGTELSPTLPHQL

Sequence of BTK (human) (Q06187 whole entry, looked up): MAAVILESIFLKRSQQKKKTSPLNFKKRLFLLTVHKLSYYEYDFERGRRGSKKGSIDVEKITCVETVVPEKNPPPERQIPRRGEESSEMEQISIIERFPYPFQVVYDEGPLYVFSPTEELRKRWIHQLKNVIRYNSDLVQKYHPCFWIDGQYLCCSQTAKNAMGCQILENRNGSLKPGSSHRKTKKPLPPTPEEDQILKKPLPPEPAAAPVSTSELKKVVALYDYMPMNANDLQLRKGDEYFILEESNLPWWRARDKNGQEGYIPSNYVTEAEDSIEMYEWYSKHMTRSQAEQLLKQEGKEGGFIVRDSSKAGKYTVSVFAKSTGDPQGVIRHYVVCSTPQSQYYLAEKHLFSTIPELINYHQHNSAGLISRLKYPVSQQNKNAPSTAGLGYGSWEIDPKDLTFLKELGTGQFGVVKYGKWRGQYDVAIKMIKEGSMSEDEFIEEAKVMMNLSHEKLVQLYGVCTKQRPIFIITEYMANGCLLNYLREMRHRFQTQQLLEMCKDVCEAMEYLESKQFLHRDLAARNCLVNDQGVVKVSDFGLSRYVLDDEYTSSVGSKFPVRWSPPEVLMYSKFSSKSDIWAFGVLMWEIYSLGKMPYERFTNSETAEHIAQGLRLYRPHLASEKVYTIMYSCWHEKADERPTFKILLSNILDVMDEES

SMILES: CN1CCN(c2ccc(C(=O)Nc3ncc4c(n3)N(C)c3ccccc3C(=O)N4C)cc2)CC1
- kinase still bound, per cent of control (PRKCQ (human)): 100%
- kinase still bound, per cent of control (BTK (human)): 100%
- kinase still bound, per cent of control (CAMK2G (human)): 100%
- kinase still bound, per cent of control (CDK14 (human)): 100%
- kinase still bound, per cent of control (CSNK1G2 (human)): 100%
- kinase still bound, per cent of control (EPHB4 (human)): 97%
- kinase still bound, per cent of control (NEK1 (human)): 100%
- kinase still bound, per cent of control (RPS6KA6 KD1 (human)): 100%
- kinase still bound, per cent of control (ERBB4 (human)): 100%
- kinase still bound, per cent of control [1]: 100%
- kinase still bound, per cent of control (NEK5 (human)): 100%
- kinase still bound, per cent of control (STK4 (human)): 93%
- kinase still bound, per cent of control [2]: 44%
- kinase still bound, per cent of control (NTRK2 (human)): 69%
- kinase still bound, per cent of control (DCLK2 (human)): 22%
- kinase still bound, per cent of control (MAPKAPK2 (human)): 100%
- kinase still bound, per cent of control (EPHB2 (human)): 91%
- kinase still bound, per cent of control (PLK3 (human)): 100%
- kinase still bound, per cent of control (EPHA2 (human)): 100%
- kinase still bound, per cent of control (FGR (human)): 100%
- kinase still bound, per cent of control (MAP3K4 (human)): 100%
- kinase still bound, per cent of control (CDC2L2 (human)): 100%
- kinase still bound, per cent of control (AURKA (human)): 96%
- kinase still bound, per cent of control (PRKCD (human)): 100%
- kinase still bound, per cent of control (TYRO3 (human)): 100%
- kinase still bound, per cent of control (CDK8 (human)): 100%
- kinase still bound, per cent of control (PRKAA1 (human)): 100%
- kinase still bound, per cent of control (RPS6KA2 KD1 (human)): 100%
- kinase still bound, per cent of control (MARK4 (human)): 91%
- kinase still bound, per cent of control (AKT2 (human)): 100%
- kinase still bound, per cent of control (STK32C (human)): 100%
- kinase still bound, per cent of control (AKT3 (human)): 90%
- kinase still bound, per cent of control (MAPK9 (human)): 100%
- kinase still bound, per cent of control (BRSK1 (human)): 87%
- kinase still bound, per cent of control (CDC42BPB (human)): 98%
- kinase still bound, per cent of control (MAP4K3 (human)): 100%
- kinase still bound, per cent of control (FLT1 (human)): 100%
- kinase still bound, per cent of control (TEK (human)): 100%
- kinase still bound, per cent of control (PKN1 (human)): 100%
- kinase still bound, per cent of control (PDGFRA (human)): 100%
- kinase still bound, per cent of control (CDK11B (human)): 100%
- kinase still bound, per cent of control (CAMK1 (human)): 100%

SMILES: COc1cc(N2CCN(C)CC2)ccc1Nc1ncc2c(n1)N(C)c1ccccc1N(C)C2=O
- kinase still bound, per cent of control (PRKCQ (human)): 83%
- kinase still bound, per cent of control (BTK (human)): 78%
- kinase still bound, per cent of control (CAMK2G (human)): 95%
- kinase still bound, per cent of control (CDK14 (human)): 100%
- kinase still bound, per cent of control (CSNK1G2 (human)): 100%
- kinase still bound, per cent of control (EPHB4 (human)): 100%
- kinase still bound, per cent of control (NEK1 (human)): 96%
- kinase still bound, per cent of control (RPS6KA6 KD1 (human)): 100%
- kinase still bound, per cent of control (ERBB4 (human)): 88%
- kinase still bound, per cent of control [1]: 100%
- kinase still bound, per cent of control (NEK5 (human)): 100%
- kinase still bound, per cent of control (STK4 (human)): 100%
- kinase still bound, per cent of control [2]: 94%
- kinase still bound, per cent of control (NTRK2 (human)): 100%
- kinase still bound, per cent of control (DCLK2 (human)): 68%
- kinase still bound, per cent of control (MAPKAPK2 (human)): 95%
- kinase still bound, per cent of control (EPHB2 (human)): 68%
- kinase still bound, per cent of control (PLK3 (human)): 100%
- kinase still bound, per cent of control (EPHA2 (human)): 100%
- kinase still bound, per cent of control (FGR (human)): 100%
- kinase still bound, per cent of control (MAP3K4 (human)): 100%
- kinase still bound, per cent of control (CDC2L2 (human)): 100%
- kinase still bound, per cent of control (AURKA (human)): 76%
- kinase still bound, per cent of control (PRKCD (human)): 100%
- kinase still bound, per cent of control (TYRO3 (human)): 100%
- kinase still bound, per cent of control (CDK8 (human)): 88%
- kinase still bound, per cent of control (PRKAA1 (human)): 92%
- kinase still bound, per cent of control (RPS6KA2 KD1 (human)): 82%
- kinase still bound, per cent of control (MARK4 (human)): 63%
- kinase still bound, per cent of control (AKT2 (human)): 100%
- kinase still bound, per cent of control (STK32C (human)): 100%
- kinase still bound, per cent of control (AKT3 (human)): 100%
- kinase still bound, per cent of control (MAPK9 (human)): 87%
- kinase still bound, per cent of control (BRSK1 (human)): 84%
- kinase still bound, per cent of control (CDC42BPB (human)): 100%
- kinase still bound, per cent of control (MAP4K3 (human)): 100%
- kinase still bound, per cent of control (FLT1 (human)): 100%
- kinase still bound, per cent of control (TEK (human)): 100%
- kinase still bound, per cent of control (PKN1 (human)): 80%
- kinase still bound, per cent of control (PDGFRA (human)): 100%
- kinase still bound, per cent of control (CDK11B (human)): 100%
- kinase still bound, per cent of control (CAMK1 (human)): 100%

SMILES: CS(=O)(=O)Nc1ccc(-c2cc(/C=C3\SC(=N)NC3=O)c[nH]c2=O)cc1
- kinase still bound, per cent of control (PRKCD (human)): 34%
- kinase still bound, per cent of control (PDGFRA (human)): 8%

SMILES: CS(=O)(=O)Nc1ccc(-c2ncc(/C=C3\SC(=N)NC3=O)s2)cc1
- kinase still bound, per cent of control (CSNK1G2 (human)): 14%
- kinase still bound, per cent of control (FGR (human)): 26%
- kinase still bound, per cent of control (PDGFRA (human)): 26%

SMILES: CS(=O)(=O)Nc1ccc(-c2cncc(/C=C3\SC(=N)NC3=O)c2)cc1
- kinase still bound, per cent of control (CSNK1G2 (human)): 0.75%
- kinase still bound, per cent of control (MAP4K3 (human)): 32%

SMILES: CN1C(=O)[C@H]2CCC[C@H]2N(C2CCCC2)c2nc(Nc3ccc(C(N)=O)cc3)ncc21
- kinase still bound, per cent of control (RPS6KA6 KD1 (human)): 30%
- kinase still bound, per cent of control (NEK5 (human)): 9%
- kinase still bound, per cent of control [2]: 19%
- kinase still bound, per cent of control (DCLK2 (human)): 18%
- kinase still bound, per cent of control (PLK3 (human)): 4.7%
- kinase still bound, per cent of control (AURKA (human)): 7.6%
- kinase still bound, per cent of control (TYRO3 (human)): 31%
- kinase still bound, per cent of control (PRKAA1 (human)): 31%
- kinase still bound, per cent of control (RPS6KA2 KD1 (human)): 24%
- kinase still bound, per cent of control (PKN1 (human)): 30%

SMILES: Nc1cccc(-c2cc(/C=C3\SC(=O)NC3=O)c[nH]c2=O)c1
- kinase still bound, per cent of control (CSNK1G2 (human)): 19%
- kinase still bound, per cent of control [1]: 16%
- kinase still bound, per cent of control [2]: 14%

The remaining lines, values ahead:

- kinase still bound, per cent of control (CDC42BPB (human)): 32%
SMILES: N=C1NC(=O)/C(=C/c2ccc(-c3csc4ccccc34)o2)S1

- kinase still bound, per cent of control (BTK (human)): 31%
- kinase still bound, per cent of control (CAMK2G (human)): 11%
- kinase still bound, per cent of control (NEK1 (human)): 33%
- kinase still bound, per cent of control (PLK3 (human)): 16%
- kinase still bound, per cent of control (CDK8 (human)): 11%
- kinase still bound, per cent of control (PRKAA1 (human)): 24%
- kinase still bound, per cent of control (RPS6KA2 KD1 (human)): 26%
- kinase still bound, per cent of control (MAPK9 (human)): 14%
- kinase still bound, per cent of control (BRSK1 (human)): 6.6%
- kinase still bound, per cent of control (PKN1 (human)): 28%
- kinase still bound, per cent of control (PDGFRA (human)): 26%
- kinase still bound, per cent of control (CAMK1 (human)): 8.4%
SMILES: N=C1NC(=O)/C(=C/c2ccc(-c3cncc4ccccc34)o2)S1

- kinase still bound, per cent of control (CAMK2G (human)): 32%
- kinase still bound, per cent of control (NEK1 (human)): 31%
- kinase still bound, per cent of control (CDK8 (human)): 10%
- kinase still bound, per cent of control (MAPK9 (human)): 20%
- kinase still bound, per cent of control (BRSK1 (human)): 28%
- kinase still bound, per cent of control (CDC42BPB (human)): 30%
- kinase still bound, per cent of control (FLT1 (human)): 28%
- kinase still bound, per cent of control (CAMK1 (human)): 27%
SMILES: O=C1NC(=S)S/C1=C\c1ccc(-c2cncc3ccccc23)o1

- kinase still bound, per cent of control (CDK14 (human)): 18%
- kinase still bound, per cent of control (MAPKAPK2 (human)): 25%
SMILES: N=C1NC(=O)/C(=C/c2ccc(-c3ccc(C(N)=O)cc3O)o2)S1

- kinase still bound, per cent of control (CDK14 (human)): 19%
- kinase still bound, per cent of control (PRKAA1 (human)): 32%
SMILES: N=C1NC(=O)/C(=C/c2ccc(-c3ccc(F)cc3O)o2)S1
